Test results: PMC5241705 (ACS Infectious Diseases, 2016)
pIC50, pKi: −log10 of the molar value. Converted amounts (≈) assume the structure as drawn. “Also recorded” adds a separate entry of the source.

Columns and labels:
[1] = test system: Mtb guaB2-guaB3 Tet-OFF attB::guaB3; experiment: microbe, parasite or virus in culture; assay type: cell-based, Mycobacterium tuberculosis; settings: for effect of guaB2 silencing on susceptibility: data not shown
Mtb H37Rv [2] = experiment: Checkerboard assay, purine supplementation versus VCC234718; assay type: cell-based, Mycobacterium tuberculosis; settings: for MIC90: Mycobacterium tuberculosis, H37RV
[3] = test system: Mtb guaB2-guaB3 Tet-OFF attB::guaB3 and guaB2-guaB3 Tet-OFF; assay type: cell-based, Mycobacterium tuberculosis
replicating H37Rv = experiment: microbe, parasite or virus in culture; assay type: cell-based, Mycobacterium tuberculosis
[4] = test system: nonreplicating, streptomycin-starved Mtb 18b or 18b-Lux; experiment: Activity against nonreplicating bacilli; assay type: cell-based, Mycobacterium tuberculosis; settings: concentrations up to 20 μM
Mtb H37Rv (H37RvMA) = experiment: MIC by broth microdilution, AlamarBlue assay; assay type: cell-based; settings: Mycobacterium tuberculosis
Mtb H37Rv [5] = experiment: Time-kill kinetics; assay type: cell-based; settings: Mycobacterium tuberculosis, read-out: 99% minimum bactericidal concentration (MBC99)
[6] = test system: Mtb-infected MRC-5 fibroblasts; assay type: cell-based, human; settings: concentration up to 50 μM
[7] = test system: Mtb-infected activated THP-1 macrophages; assay type: cell-based, human
Mtb SRMV2.3 = experiment: microbe, parasite or virus in culture; assay type: cell-based; settings: Mycobacterium tuberculosis
Mtb SRMV2.6 = experiment: microbe, parasite or virus in culture; assay type: cell-based, Mycobacterium tuberculosis
Mtb SRMV2.10 = experiment: microbe, parasite or virus in culture; assay type: cell-based; settings: Mycobacterium tuberculosis
Mtb SRMV2.6 attB::guaB2 = experiment: MIC by AlamarBlue assay; assay type: cell-based; settings: Mycobacterium tuberculosis
[8] = test system: Mtb SRMV2.6 attB::guaB2-guaB3; experiment: MIC by AlamarBlue assay; assay type: cell-based; settings: Mycobacterium tuberculosis
Mtb H37Rv attB::guaB2 = experiment: MIC by AlamarBlue assay; assay type: cell-based; settings: Mycobacterium tuberculosis
[9] = test system: Mtb H37Rv attB::guaB2-guaB3; experiment: MIC by AlamarBlue assay; assay type: cell-based; settings: Mycobacterium tuberculosis
[10] = test system: PDIM-deficient H37Rv strain (H37RvJO); experiment: MIC by AlamarBlue assay; assay type: cell-based; settings: Mycobacterium tuberculosis
Mtb GuaB2 = Mtb GuaB2 (Mycobacterium tuberculosis, UniProt P9WKI7); experiment: biochemical; settings: for pKi: Ki
[11] = test system: Caco-2/TC-7 cell monolayers; settings: threshold value 20 × 10^–7 cm s^–1
[12] = human primary hepatocytes
[13] = human and rodent liver microsomes and human liver primary hepatocytes
[14] = test system: Corynebacterium glutamicum; settings: phenotypic screen; cited from earlier work
human ERG channel = human ERG channel (Homo sapiens, UniProt Q12809); experiment: cell-based
Chain of human ERG channel (Q12809 whole entry): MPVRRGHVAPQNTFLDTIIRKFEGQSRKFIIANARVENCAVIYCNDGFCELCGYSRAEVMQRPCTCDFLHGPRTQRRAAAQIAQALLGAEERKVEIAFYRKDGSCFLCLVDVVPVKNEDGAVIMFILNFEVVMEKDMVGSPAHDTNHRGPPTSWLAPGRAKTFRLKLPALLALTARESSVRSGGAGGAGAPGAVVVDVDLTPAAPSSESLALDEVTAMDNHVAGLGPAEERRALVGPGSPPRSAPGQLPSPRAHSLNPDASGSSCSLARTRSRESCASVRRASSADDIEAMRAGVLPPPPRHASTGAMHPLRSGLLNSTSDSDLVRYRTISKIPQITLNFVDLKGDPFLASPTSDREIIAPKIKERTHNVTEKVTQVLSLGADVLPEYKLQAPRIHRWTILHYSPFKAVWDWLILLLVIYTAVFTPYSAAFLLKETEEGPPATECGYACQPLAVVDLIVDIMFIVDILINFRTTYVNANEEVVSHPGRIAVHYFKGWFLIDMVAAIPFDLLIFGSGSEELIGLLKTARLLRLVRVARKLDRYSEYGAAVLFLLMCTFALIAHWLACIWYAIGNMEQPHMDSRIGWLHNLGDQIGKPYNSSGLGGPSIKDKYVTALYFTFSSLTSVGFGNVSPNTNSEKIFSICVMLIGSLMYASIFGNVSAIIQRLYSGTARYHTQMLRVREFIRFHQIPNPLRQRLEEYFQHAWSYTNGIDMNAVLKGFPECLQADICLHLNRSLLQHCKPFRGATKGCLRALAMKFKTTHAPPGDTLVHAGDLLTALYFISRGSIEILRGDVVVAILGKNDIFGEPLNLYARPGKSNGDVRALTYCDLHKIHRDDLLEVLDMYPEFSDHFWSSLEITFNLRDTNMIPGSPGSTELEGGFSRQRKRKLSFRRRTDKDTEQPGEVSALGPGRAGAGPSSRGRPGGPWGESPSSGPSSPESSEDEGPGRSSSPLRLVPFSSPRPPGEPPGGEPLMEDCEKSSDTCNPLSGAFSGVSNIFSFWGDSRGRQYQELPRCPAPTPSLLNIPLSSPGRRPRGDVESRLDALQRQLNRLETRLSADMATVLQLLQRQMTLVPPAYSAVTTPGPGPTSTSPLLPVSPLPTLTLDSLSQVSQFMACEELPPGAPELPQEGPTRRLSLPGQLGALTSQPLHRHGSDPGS

Chain of Mtb GuaB2 (P9WKI7 whole entry, looked up): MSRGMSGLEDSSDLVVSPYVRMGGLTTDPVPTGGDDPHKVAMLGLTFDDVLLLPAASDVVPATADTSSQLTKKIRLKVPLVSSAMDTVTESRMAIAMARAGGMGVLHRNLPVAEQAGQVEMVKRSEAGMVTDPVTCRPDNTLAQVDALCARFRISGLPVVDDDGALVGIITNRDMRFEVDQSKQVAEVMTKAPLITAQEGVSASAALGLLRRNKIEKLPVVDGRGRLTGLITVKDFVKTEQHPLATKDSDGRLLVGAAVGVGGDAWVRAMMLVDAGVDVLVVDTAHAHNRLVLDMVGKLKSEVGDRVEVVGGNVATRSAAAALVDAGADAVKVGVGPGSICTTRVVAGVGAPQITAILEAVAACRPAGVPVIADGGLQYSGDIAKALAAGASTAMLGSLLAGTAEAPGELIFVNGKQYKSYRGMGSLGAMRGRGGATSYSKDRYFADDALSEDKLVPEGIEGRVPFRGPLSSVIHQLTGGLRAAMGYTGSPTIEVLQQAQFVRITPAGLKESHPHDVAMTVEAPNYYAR

For `CO[C@H]1/C=C/O[C@@]2(C)Oc3c(C)c(O)c4c(O)c(c(/C=N/N5CCN(C)CC5)c(O)c4c3C2=O)NC(=O)/C(C)=C\C=C\[C@H](C)[C@H](O)[C@@H](C)[C@@H](O)[C@@H](C)[C@H](OC(C)=O)[C@@H]1C` [rifampicin], the “effect of guaB2 silencing on susceptibility” value (“effect of guaB2 silencing” below) [1] was “no effect”.

For `NNC(=O)c1ccncc1` [isoniazid], the “effect of guaB2 silencing” value [1] was “no effect”.

With `C[C@H]1COc2c(N3CCN(C)CC3)c(F)cc3c(=O)c(C(=O)O)cn1c23` [levofloxacin] the “effect of guaB2 silencing” value [1] was “no effect”.

In the case of `Nc1nc2nc[nH]c2c(=O)[nH]1` [guanine], the “rescue of Mtb from VCC234718 toxicity” value (Mtb H37Rv [2]; VCC234718 at 128 μM) was “unable to rescue” and the “guanine concentration giving essentially complete rescue from ATc toxicity” value [3] was ≥ 125 µM.

In the case of `O=c1[nH]c(=O)c2nc[nH]c2[nH]1` [xanthine], the “effect of supplementation on VCC234718 toxicity” value (shortened to “effect of supplementation”) (Mtb H37Rv [2]) was “no effect”.

In the case of `[H]/N=C(/N)N[C@H]1[C@H](O)[C@@H](O)[C@H](O[C@@H]2O[C@@H](C)[C@](O)(C=O)[C@H]2O[C@@H]2O[C@@H](CO)[C@H](O)[C@@H](O)[C@@H]2NC)[C@@H](N/C(N)=N\[H])[C@@H]1O` [streptomycin], the “effect of guaB2 silencing” value [1] was “no effect”.

In the case of `Nc1nc2c(ncn2[C@@H]2O[C@H](CO)[C@@H](O)[C@H]2O)c(=O)[nH]1` [guanosine], the “effect of supplementation” value (Mtb H37Rv [2]) was “neither adenine nor guanosine supplementation was able to rescue; also recorded: failed to rescue”.

With `O=C(C1CCCCC1)N1CCN(S(=O)(=O)c2cccc3cnccc23)CC1` [VCC234718, N-(5-Isoquinolinylsulfonyl)-N’-cyclohexanoyl-piperazine] the inhibition at 20 µM (replicating H37Rv; Mycobacterium tuberculosis, H37RV, 168 h, read-out: percentage inhibition of resazurin reduction) was > 80%, the MIC90 (replicating H37Rv; Mycobacterium tuberculosis, H37RV, read-out: 90% minimum inhibitory concentration (MIC90)) was 5 µM (≈ 1.94 µg/mL) and the “inhibition of H37Rv growth” value (replicating H37Rv; at 20 μM) was “totally inhibit”. For the same compound, the “inhibition of nonreplicating Mtb” value [4] was “not significantly inhibiting”, the MIC90 (Mtb H37Rv (H37RvMA)) was 2 µM (≈ 0.775 µg/mL) and the MBC (Mtb H37Rv [5]) was 16 to 32 µM (≈ 6.2 to 12.4 µg/mL). For the same compound, the “anticytolytic activity in MRC-5 fibroblasts” value [6] was “completely inactive”, the “concentrations displaying anticytolytic activity in activated THP-1 macrophages” value [7] was > 1 µM and the MIC90 (Mtb SRMV2.3) was 16 µM (≈ 6.2 µg/mL). For the same compound, the MIC90 (Mtb SRMV2.6; Mycobacterium tuberculosis, SRMV2.6) was > 100 µM, the MIC90 (Mtb SRMV2.6; strain SRMV2.6) was >100 µM and the MIC90 (Mtb SRMV2.10) was 8 µM (≈ 3.1 µg/mL). For the same compound, the MIC90 (Mtb SRMV2.6 attB::guaB2) was > 200 µM, the MIC90 [8] was > 200 µM and the MIC90 (Mtb H37Rv attB::guaB2) was 4 to 8 µM (≈ 1.55 to 3.1 µg/mL). It also gave an MIC90 [9] of 4 to 8 µM (≈ 1.55 to 3.1 µg/mL), an MIC90 [10] of 2 µM (≈ 0.775 µg/mL) and a pKi (Mtb GuaB2; Mtb GuaB2) of 7.00. For the same compound, the pKi (Mtb GuaB2; Mtb GuaB2, IMP as the substrate) was 6.92, the mechanism of inhibition (Mtb GuaB2; with respect to IMP and NAD+) was “uncompetitive” and the MIC90 ([1]; Mycobacterium tuberculosis, checkerboard, before guaB2 silencing (lowest ATc)) was 2.5 µM. For the same compound, the MIC90 (Mtb H37Rv [2]; checkerboard, without guanine) was 2 µM, the MIC90 (Mtb H37Rv [2]; guanine concentration of 200 μM) was > 64 µM and the “permeability (in words)” value [11] was “very high”. The “contribution of CYP3A4 to metabolism (in words)” value [12] was “no contribution”, the “metabolism (in words)” value [13] was “highly metabolized” and the whole-cell activity [14] was “not against Corynebacterium glutamicum”. For the same compound, the pIC50 (human ERG channel) was 4.86.

With `Nc1ncnc2[nH]cnc12` [adenine] the “effect of supplementation” value (Mtb H37Rv [2]) was “neither adenine nor guanosine supplementation was able to rescue”.

In the case of `CC[C@@H](CO)NCCN[C@@H](CC)CO` [ethambutol], the “effect of guaB2 silencing” value [1] was “no effect”.
